Experimental data: patent US4355043A, “Novel derivatives of 3-aminopropanesulfonic acid having a reinforced activity on membrane” (Les Laboratoires Meram, priority 1979, dated 1982)
Like-named read-outs stand apart in the source and are kept apart here.

Key:
erythrocyte membrane = assay: stabilising effect on the erythrocyte membrane (haemolysis in hypotonic medium and with heat); assay type: cell-based, rabbit
From the text: Nature (1970) 225, Mar. 21, 1150-1151.

[1] = rectal temperature (hypothermia); assay type: in vivo; conditions: rat
hypermotility by ethanol = assay: antagonism of the hypermotility caused by ethanol (Cott-Carlsson Engel Lindqvist test); assay type: in vivo, mouse; conditions: for antagonism of ethanol hypermotility / sedative activity, ranking: mouse, per os, comparison in words
Description: The motility of the mice placed in the actimeter is recorded immediately after this injection, every 5 minutes, for 60 minutes. The percentage of variation of the motility of the mice treated with ethanol with respect to the controls receiving water is determined, and of mice treated with the product to be tested and with ethanol with respect to mice receiving only ethanol.

[2] = mouse, in vivo, ip
[3] = system: convulsions caused by pentetrazol; assay: anti-convulsivant action on convulsions caused by pentetrazol; assay type: in vivo, mouse
Description: The compounds according to the invention also present an anti-convulsivant action on the convulsions caused in the mouse by pentetrazol: After administration of pentetrazol, the time of appearance of the convulsions and the time of appearance of death is measured, in the animals which previously received, by the intraperitoneal route, the product to be tested, comparatively to controls receiving only pentetrazol.

[4] = LD50 toxicity in the mouse (Table I; text); conditions: for change of LD50 of the cation against the reference salt: expressed as cation
in vivo = conditions: mouse, ip
[5] = system: muscle fatigued by application of lactic acid; assay: test of the muscle fatigued by application of lactic acid; assay type: in vivo; conditions: comparison within the series
From the text: (§1) It is furthermore suitable for the manufacture of aqueous solutions.

narcosis by ethanol = assay: potentialization of narcosis by ethanol; assay type: in vivo; conditions: mouse, oral route, comparison within the series
From the text: as §1

[6] = rabbit red cells in vitro, hypotonic medium pH 7.4, 53° C., read-out: ED50, stabilising effect on the erythrocyte membrane
[7] = LD50 expressed in Mg++ or Li+, intraperitoneal route

Compound: CC(=O)NCCCS(=O)(=O)O [Calcium acetylhomotaurinate, calcium N-acetylhomotaurinate]
- EC50 (erythrocyte membrane; [6]): 1 mM
- ranking of hypothermic activity [1]: more active than that of magnesium
- antagonism of the hypermotility by ethanol, result (hypermotility by ethanol; 80 mg per os): 0
- antagonism of the hypermotility by ethanol, result (hypermotility by ethanol; 100 mg per os): antagonism
- antagonism of the hypermotility by ethanol, significance (hypermotility by ethanol; 100 mg per os): xxx
- antagonism of the hypermotility by ethanol, result (hypermotility by ethanol; 200 mg per os): antagonism
- antagonism of the hypermotility by ethanol, significance (hypermotility by ethanol; 200 mg per os): xx
- antagonism of the hypermotility by ethanol, result (hypermotility by ethanol; 200 mg per os, listed as calcium acetylhomotaurinate): significant antagonism
- antagonism of the hypermotility by ethanol, result (hypermotility by ethanol; 400 mg per os): antagonism
- antagonism of the hypermotility by ethanol, result (hypermotility by ethanol; 400 mg per os, listed as calcium acetylhomotaurinate): significant antagonism
- antagonism of the hypermotility by ethanol, result (hypermotility by ethanol; 800 mg per os): antagonism
- antagonism of the hypermotility by ethanol, significance (hypermotility by ethanol; 800 mg per os): xx (shorter)
- antagonism of the hypermotility by ethanol, result (hypermotility by ethanol; 800 mg per os, listed as calcium acetylhomotaurinate): this effect is confirmed at the dose of 800 mg/kg but does not appear to be superior to that recorded at 400 mg
- antagonism of ethanol hypermotility / sedative activity, ranking (hypermotility by ethanol; listed as Ca acetylhomotaurinate): greater than that of Mg acetylhomotaurinate
- LD50 [2]: 1870 mg/kg
- LD50 expressed as cation [2]: 186 mg cation/kg
- time of appearance of death ([3]; 400 mg/kg i.p.): significant antagonism (xx)
- time of appearance of convulsions ([3]; 800 mg/kg i.p.): significant
- time of appearance of death ([3]; 800 mg/kg i.p.): significant antagonism (xx)
- time of appearance of the convulsions ([3]; 1000 mg/kg i.p.): very significant (xxx)
- anti-convulsivant activity, comparison ([3]; mouse, i.p., in words): greater than that of Mg acetylhomotaurinate

Compound: CC(=O)NCCCS(=O)(=O)[O-].[Li+]
- EC50 (erythrocyte membrane; Oryctolagus cuniculus, Erythrocyte, pH 7.4, read-out: ED50, stabilising effect on the erythrocyte membrane): 10 mM
- change of LD50 of the cation against the reference salt ([4]; mouse, intraperitoneal route): significantly increased
- LD50 (in vivo; LD50, male mouse): 4260 mg/kg
- LD50 (in vivo; [7]): 157 mg/kg

Compound: CC(=O)NCCCS(=O)(=O)O [Magnesium acetylhomotaurinate, magnesium N-acetylhomotaurinate]
- EC50 (erythrocyte membrane; [6]): 10 mM
- change of LD50 of the cation against the reference salt ([4]; mouse, intraperitoneal route): significantly increased
- antagonism of the hypermotility by ethanol, result (hypermotility by ethanol; 80 mg per os): antagonism
- antagonism of the hypermotility by ethanol, result (hypermotility by ethanol; 100 mg per os): antagonism
- antagonism of the hypermotility by ethanol, significance (hypermotility by ethanol; 100 mg per os): not significant
- antagonism of the hypermotility by ethanol, result (hypermotility by ethanol; 200 mg per os): antagonism
- antagonism of the hypermotility by ethanol, result (hypermotility by ethanol; 200 mg per os, listed as magnesium acetylhomotaurinate): slightly less than that of the calcium salt
- antagonism of the hypermotility by ethanol, result (hypermotility by ethanol; 400 mg per os): antagonism
- antagonism of the hypermotility by ethanol, result (hypermotility by ethanol; 400 mg per os, listed as magnesium acetylhomotaurinate): slightly less than that of the calcium salt
- LD50 (in vivo; LD50, male mouse): 2570 mg/kg
- LD50 (in vivo; [7]): 161 mg/kg
- time of appearance of convulsions ([3]; 800 mg/kg i.p.): significant

Compound: CC(=O)NCCS(=O)(=O)O [Magnesium acetyltaurinate, reference compound]
- antagonism of the hypermotility by ethanol, result (hypermotility by ethanol; 100 mg per os): antagonism
- antagonism of the hypermotility by ethanol, significance (hypermotility by ethanol; 100 mg per os): not significant
- antagonism of the hypermotility by ethanol, result (hypermotility by ethanol; 200 mg per os): antagonism
- antagonism of the hypermotility by ethanol, significance (hypermotility by ethanol; 200 mg per os): not significant
- antagonism of the hypermotility by ethanol, result (hypermotility by ethanol; 400 mg per os): 0
- time of appearance of the convulsions ([3]; 1000 mg/kg i.p.): significantly (xx)
- time of appearance of death ([3]; 1000 mg/kg i.p., listed as Mg acetyltaurinate): significantly (xx)

Compound: CC(=O)NCCS(=O)(=O)[O-].[Na+] [Sodium acetyltaurinate, reference compound]
- antagonism of the hypermotility by ethanol, result (hypermotility by ethanol; 400 mg per os): 0

Compound: NCCCS(=O)(=O)O [Homotaurine, 3-aminopropanesulfonic acid]
- EC50 (erythrocyte membrane; Oryctolagus cuniculus, Erythrocyte, pH 7.4, rabbit red cells in vitro, hypotonic medium pH 7.4, 53° C., read-out: ED50, stabilising effect on the erythrocyte membrane): 15 mM
- effect on rectal temperature ([1]; homotaurine by intraperitoneal route): does not modify the rectal temperature

Compound: CC(=O)NCCCS(=O)(=O)O [Potassium acetylhomotaurinate, 3-acetylaminopropanesulfonate of potassium]
- EC50 (erythrocyte membrane; [6]): 5 mM
- activity in the test of the muscle fatigued by lactic acid [5]: the most active
- LD50 [2]: 4120 mg/kg
- LD50 expressed as cation [2]: 733 mg cation/kg
- time of appearance of death ([3]; 315 mg/kg i.p.): increase, without reaching the level of significance
- time of appearance of the convulsions ([3]; 315 mg/kg i.p.): increase, without reaching the level of significance

Compound: CC(=O)NCCS(=O)(=O)O [Calcium acetyltaurinate, reference compound]
- LD50 by oral route ([4]; oral route, footnote of Table I): 13090 mg/kg
- antagonism of the hypermotility by ethanol, result (hypermotility by ethanol; 80 mg per os): 0
- antagonism of the hypermotility by ethanol, result (hypermotility by ethanol; 800 mg per os): antagonism
- antagonism of the hypermotility by ethanol, significance (hypermotility by ethanol; 800 mg per os): x to xx according
- time of appearance of death ([3]; 1000 mg/kg i.p., listed as Ca acetyltaurinate): significantly (x)

Compound: CC(=O)NCCCS(=O)(=O)O [Sodium acetylhomotaurinate, 3-acetylaminopropanesulfonate of sodium]
- EC50 (erythrocyte membrane; [6]): 5 mM
- potentialization of narcosis by ethanol (narcosis by ethanol): top of the series
- antagonism of the hypermotility by ethanol, result (hypermotility by ethanol; 400 mg per os): slight antagonism which appears at the 50th minute of observation
- antagonism of the hypermotility by ethanol, significance (hypermotility by ethanol; 400 mg per os): not significant
- antagonism of the hypermotility by ethanol, result (hypermotility by ethanol; 400 mg per os, listed as Sodium acetyhomotaurinate): slight anta-
- antagonism of ethanol hypermotility / sedative activity, ranking (hypermotility by ethanol): least active
- LD50 [2]: greater than 5 g/kg
- time of appearance of death ([3]; 292 mg/kg i.p.): increase, without reaching the level of significance
- time of appearance of the convulsions ([3]; 292 mg/kg i.p.): increase, without reaching the level of significance

Compound: [Cl-].[Cl-].[Mg+2] [magnesium chloride, reference compound]
- LD50 expressed in Mg++ or Li+ ([4]; mouse, intraperitoneal route): 94 mg
